Test results published in article PMC12630025, “Characterization and inhibitor sensitivity of ARAF, BRAF, and CRAF kinases [drawing 1]” (The Journal of Biological Chemistry, 2025).
Several values for one entry are separate records, joined by “and”; a condition that tells them apart may be missing. Identical values can stand only once. Like-named read-outs stand apart in the source and are kept apart here.

Tests used:
[1] = target: BRAF^KD (Homo sapiens, UniProt P15056); assay: ATP and MEK titrations by TR-FRET (Michaelis constants, substrate inhibition)
[2] = target: BRAF^V600E (Homo sapiens, UniProt P15056, V600E); assay: as above
[3] = target: CRAF^SSDD (Homo sapiens, UniProt P04049, Y340D/Y341D); assay: as above
[4] = target: T1, BRAF^WT (Homo sapiens, UniProt P15056); assay: as above; assay type: biochemical; conditions: apparent Ki of substrate inhibition by ATP
T1 construct: His6 (N); made in house; host or cells: SF9 insect cells (baculovirus)
T1 sequence (P15056 419-766): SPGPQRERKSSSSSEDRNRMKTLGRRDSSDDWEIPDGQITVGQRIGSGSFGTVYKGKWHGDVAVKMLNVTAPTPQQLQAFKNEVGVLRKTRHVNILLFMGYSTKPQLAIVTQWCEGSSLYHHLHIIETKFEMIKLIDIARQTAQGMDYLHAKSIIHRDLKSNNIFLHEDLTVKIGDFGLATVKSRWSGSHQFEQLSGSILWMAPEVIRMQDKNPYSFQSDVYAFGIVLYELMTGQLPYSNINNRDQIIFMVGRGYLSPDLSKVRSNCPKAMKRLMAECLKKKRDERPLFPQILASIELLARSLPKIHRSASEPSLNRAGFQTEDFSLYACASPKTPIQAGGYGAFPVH

[5] = target: CRAF^WT (Homo sapiens, UniProt P04049); assay: as above
[6] = target: T2, ARAF^SSDD (Homo sapiens, UniProt P10398, G300S/Y301D/Y302D); assay: as above
T2 sequence (P10398 274-606 G300S/Y301D/Y302D): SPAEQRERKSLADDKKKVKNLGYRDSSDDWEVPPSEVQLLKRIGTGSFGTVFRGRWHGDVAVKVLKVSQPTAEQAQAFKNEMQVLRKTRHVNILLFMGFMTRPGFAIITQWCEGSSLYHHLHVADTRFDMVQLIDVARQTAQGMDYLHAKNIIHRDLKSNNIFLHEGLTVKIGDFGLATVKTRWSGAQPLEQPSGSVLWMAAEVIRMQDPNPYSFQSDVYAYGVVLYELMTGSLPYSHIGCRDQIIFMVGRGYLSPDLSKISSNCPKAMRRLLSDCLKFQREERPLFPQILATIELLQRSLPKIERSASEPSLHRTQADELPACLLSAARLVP

[7] = target: T3, CRAF^SSDD (MEK1^SASA:CRAF^SSDD:14-3-3 dimer complex) (Homo sapiens, UniProt P04049, Y340D/Y341D); assay: TR-FRET kinase inhibition assay (phosphorylation of biotinylated MEK1), CRAF SSDD dimer complex; assay type: biochemical; conditions: for CRAF^SSDD nH (Hill slope): four-parameter fit, 200 μM ATP; for CRAF^SSDD IC50: 1 nM enzyme
T3 construct: His6 (N); StrepII (N); made in house; host or cells: insect cells (baculovirus)

[8] = target: T4, ARAF^SSDD (MEK1^SASA:ARAF^SSDD-14-3-3ε dimer complex) (Homo sapiens, UniProt P10398, G300S/Y301D/Y302D); assay: TR-FRET kinase inhibition assay (phosphorylation of biotinylated MEK1), ARAF dimer complex; assay type: biochemical; conditions: for IC50: 10 nM enzyme, 250 nM MEK1, 200 μM ATP, 40 min preincubation, 30 min reaction; for ARAF^SSDD nH (Hill slope): four-parameter fit, 200 μM ATP; for cooperativity of inhibition of ARAF^SSDD: from Hill constants, less than −1.0 indicates positive cooperativity
T4 construct: ARAF^274-606, G300S, Y301/302D-14-3-3 ε with N-terminal His6 and StrepII tags; His6 (N); StrepII (N); made in house; host or cells: SF9 insect cells (baculovirus)
T4 sequence (P10398 274-606 G300S/Y301D/Y302D): T2 sequence (P10398 274-606 G300S/Y301D/Y302D)

[9] = target: T5, BRAF^WT (MEK1^SASA:BRAF^WT:14-3-3 dimer complex) (Homo sapiens, UniProt P15056); assay: biochemical; assay type: biochemical; conditions: for effect of increasing ATP concentration on IC50 for BRAF^WT dimers: 10, 100, 1000 μM ATP
T5 construct: His6 (N); made in house; host or cells: SF9 insect cells (baculovirus)
T5 sequence (P15056 419-766, one chain of several): as the sequence (P15056 419-766) above

[10] = target: T6, CRAF^WT (MEK1:CRAF^WT:14-3-3 dimer complex) (Homo sapiens, UniProt P04049); assay: TR-FRET kinase inhibition assay (phosphorylation of biotinylated MEK1), CRAF WT dimer complex; assay type: biochemical; conditions: for CRAF^WT nH (Hill slope): four-parameter fit
T6 construct: His6 (N); made in house; host or cells: insect cells (baculovirus)

[11] = target: T7, BRAF^V600E (MEK1^SASA:BRAF^V600E monomer complex) (Homo sapiens, UniProt P15056, V600E); assay: TR-FRET kinase inhibition assay (phosphorylation of biotinylated MEK1), BRAF V600E monomer complex; assay type: biochemical
T7 construct: His6 (N); intein (C, cleaved yes); made in house; host or cells: insect cells (baculovirus)

[12] = tested on: CRAF^WT (MEK1:CRAF^WT:14-3-3 dimer complex); assay: TR-FRET kinase inhibition assay (phosphorylation of biotinylated MEK1), CRAF WT dimer complex; assay type: biochemical; conditions: IC50 ratio ARAF/CRAF
[13] = tested on: BRAF^WT (MEK1^SASA:BRAF^WT:14-3-3 dimer complex); assay: biochemical; assay type: biochemical; conditions: IC50 ratio versus BRAF^V600E
[14] = 250 nM MEK1, 200 μM ATP, 40 min preincubation, 30 min reaction
[15] = 1 nM enzyme, 250 nM MEK1, 200 μM ATP, 40 min preincubation, 30 min reaction, read-out: BRAF^WT IC50
[16] = IC50 of BRAF^WT at 10 μM ATP, 10 μM ATP
[17] = IC50 of BRAF^WT at 100 μM ATP, 100 μM ATP
[18] = IC50 of BRAF^WT at 1000 μM ATP, 1000 μM ATP
[19] = 4 nM enzyme, 250 nM MEK1, 200 μM ATP, 40 min preincubation, 30 min reaction
[20] = 4 nM enzyme, 250 nM MEK1, 200 μM ATP, 40 min preincubation, 30 min reaction, read-out: CRAF^WT IC50
[21] = read-out: IC50 of BRAF^WT at 100 μM ATP, 100 μM ATP
[22] = 1 nM enzyme, 250 nM MEK1, 200 μM ATP, 40 min preincubation, three-parameter fit

| SMILES | CRAF^SSDD nH (Hill slope) [7] | IC50 [8] | ARAF^SSDD nH (Hill slope) [8] | BRAF^WT nH (Hill slope) ([9]; four-parameter fit, 200 μM ATP) | CRAF^WT nH (Hill slope) ([10]; 200 μM ATP) | further results |
| --- | --- | --- | --- | --- | --- | --- |
| Nc1ncnc2c1ncn2[C@@H]1O[C@H](COP(=O)(O)OP(=O)(O)OP(=O)(O)O)[C@@H](O)[C@H]1O [ATP] |  |  |  |  |  | Km-ATP, BRAF^KD ([1]; ATP titration, substrate inhibition fit): 0.18 ± 0.04 µM; Ki ([1]; read-out: Ki-ATP, BRAF^KD, apparent Ki of substrate inhibition by ATP): 3.53 ± 0.58 mM; Ki ([2]; read-out: Ki-ATP, BRAF^V600E, apparent Ki of substrate inhibition by ATP): 6.34 ± 4.07 mM; Km ([2]; read-out: Km-ATP, BRAF^V600E, ATP titration, substrate inhibition fit): 12.6 ± 7.8 µM; Ki ([3]; read-out: Ki-ATP, CRAF^SSDD, apparent Ki of substrate inhibition by ATP): > 15 mM; Km ([3]; read-out: Km-ATP, CRAF^SSDD, ATP titration, substrate inhibition fit): 730 ± 380 nM; Ki [4]: 4.84 ± 2.85 mM; Ki ([5]; read-out: Ki-ATP, CRAF^WT, apparent Ki of substrate inhibition by ATP): > 15 mM; Km ([5]; read-out: Km-ATP, CRAF^WT, ATP titration, substrate inhibition fit): 1560 ± 1500 nM; Ki ([6]; read-out: Ki-ATP, ARAF^SSDD, apparent Ki of substrate inhibition by ATP): > 15 mM; Km ([6]; read-out: Km-ATP, ARAF^SSDD, ATP titration, substrate inhibition fit): 1580 ± 190 nM |
| Cc1ccc(NC(=O)c2cccc(C(C)(C)C#N)c2)cc1Nc1ccc2ncn(C)c(=O)c2c1 [AZ628] | −2.6 | 44.1 ± 21.2 nM | −1.8 | −3.1 | −1.1 | cooperativity of inhibition of ARAF^SSDD [8]: clear positive cooperativity |
| Cc1ccc2c(Nc3cccc(Cl)c3F)nccc2c1NC(=O)c1csc2c(N)ncnc12 [Belvarafenib] | −3.0 | 69.9 ± 32 nM | −1.3 | −3.0 | −1.6 | CRAF^SSDD IC50 [7, 14]: single-digit nanomolar; IC50 ([7]; read-out: CRAF^SSDD IC50): 5.66 ± 1.12 nM; IC50 [11]: 13.3 ± 0.87 nM; IC50 [9, 15]: 19.9 ± 0.98 nM; effect of increasing ATP concentration on IC50 for BRAF^WT dimers [9]: only modestly affected; IC50 [9, 16]: 14.2 ± 6.36 nM; IC50 [9, 17]: 21.5 ± 9.23 nM; IC50 [9, 18]: 29.3 ± 8.75 nM; CRAF^WT IC50 [10, 19]: single-digit nanomolar; IC50 [10, 20]: 5.05 ± 1.81 nM |
| CC(C)(C)c1nc(-c2cccc(NS(=O)(=O)c3c(F)cccc3F)c2F)c(-c2ccnc(N)n2)s1 [Dabrafenib] | −1.0 | 9 nM and 8.58 nM | −1.1 | −1.4 | −0.9 |  |
| OCCn1cc(-c2ccc3c(c2)CC/C3=N\O)c(-c2ccncc2)n1 [GDC0879] | −0.7 |  | −0.4 |  | −1.0 | BRAF^WT nH (Hill slope) [9]: −0.9 |
| CNc1ncc2cc(-c3cc(NC(=O)NCCC(C)(C)C)c(F)cc3C)c(C)nc2n1 [LY3009120] | −2.9 |  | −3.6 | −2.2 | −1.4 | cooperativity of inhibition of ARAF^SSDD [8]: clear positive cooperativity |
| Cc1ccc(NC(=O)c2ccnc(C(F)(F)F)c2)cc1-c1cc(OCCO)nc(N2CCOCC2)c1 [Naporafenib] | −2.6 | 161 ± 19.2 nM | −3.2 | −2.3 | −1.9 | CRAF^SSDD IC50 [7, 14]: single-digit nanomolar; IC50 ([7]; read-out: CRAF^SSDD IC50): 6.05 ± 2.41 nM; IC50 [11]: 51.3 ± 1.16 nM; cooperativity of inhibition of ARAF^SSDD [8]: clear positive cooperativity; IC50 [9, 15]: 37.1 ± 23 nM; effect of increasing ATP concentration on IC50 for BRAF^WT dimers [9]: only modestly affected; IC50 [9, 16]: 29.1 ± 8.31 nM; IC50 [9, 18]: 54.9 ± 16.5 nM; IC50 [9, 21]: 38.2 ± 11.4 nM; fold greater potency against CRAF dimers than ARAF dimers [12]: approximately 30 fold; CRAF^WT IC50 [10, 19]: single-digit nanomolar; IC50 [10, 20]: 5.46 ± 2.67 nM |
| CCCS(=O)(=O)Nc1ccc(F)c(C(=O)c2c[nH]c3ncc(Cl)cc23)c1F [PLX4720] |  | 704 ± 264 nM | −0.5 |  |  |  |
| CCN(C)S(=O)(=O)Nc1ccc(F)c(C(=O)c2c[nH]c3ncc(-c4cnc(C5CC5)nc4)cc23)c1F [PLX7904] | −0.4 | 899 ± 516 nM | −0.6 | −0.6 | −0.4 | IC50 [11, 22]: 320 ± 82.4 nM; IC50 [9, 15]: > 999 nM; IC50 ([9]; read-out: IC50 of BRAF^WT at 10 μM ATP, 10 μM ATP): 170 ± 121 nM; IC50 [9, 21]: > 1000 nM; IC50 ([9]; read-out: IC50 of BRAF^WT at 1000 μM ATP, 1000 μM ATP): > 10000 nM |
| O=C(c1c(F)ccc(NS(=O)(=O)N2CC[C@@H](F)C2)c1F)c1c[nH]c2ncc(-c3cnc(C4CC4)nc3)cc12 [PLX8394] | −0.5 | 59.6 ± 54.8 nM | −0.8 | −0.9 | −0.5 | IC50 ([7]; read-out: CRAF^SSDD IC50): 279 ± 202 nM; IC50 [11, 22]: 21.1 ± 1.78 nM; fold less active on ARAF^SSDD dimers than on BRAF^V600E ([8]; IC50 ratio versus BRAF^V600E): about 3 fold; fold less active on BRAF^WT dimers than on BRAF^V600E [13]: about 3 fold; IC50 [9, 15]: 54 ± 40.1 nM; effect of increasing ATP concentration on IC50 for BRAF^WT dimers [9]: shifted as expected; IC50 [9, 16]: 11.1 ± 7.84 nM; IC50 [9, 17]: 38.5 ± 34.2 nM; IC50 [9, 18]: 259 ± 316 nM; IC50 [10, 20]: > 999 nM; IC50 ([10]; 200 μM ATP, read-out: CRAF^WT dimers IC50): > 1000 nM |
| Cc1ccc(C(=O)Nc2ccc(CN3CCN(C)CC3)c(C(F)(F)F)c2)cc1C#Cc1cnc2cccnn12 [Ponatinib] | −1.6 |  | −1.2 | −2.0 | −0.9 |  |
| CN(C)CCOc1ccc(-c2nc(-c3ccncc3)c(-c3ccc4c(c3)CC/C4=N\O)[nH]2)cc1 [SB590885] |  | 14.6 ± 3.9 nM | −0.6 |  |  | IC50 ([7]; CRAF^SSDD IC50, 1 nM enzyme, 250 nM MEK1, 200 μM ATP, 40 min preincubation, 30 min reaction): 2.5 ± 1.63 nM; BRAF^WT nH (Hill slope) [9]: −1.0; IC50 ([10]; CRAF^WT IC50, 4 nM enzyme, 250 nM MEK1, 200 μM ATP, 40 min preincubation, 30 min reaction): 11.6 ± 1.19 nM |
| CNC(=O)c1cc(Oc2ccc(NC(=O)Nc3ccc(Cl)c(C(F)(F)F)c3)cc2)ccn1 [Sorafenib] | −1.3 |  | −0.9 |  | −1.2 |  |
| C[C@@H](NC(=O)c1ncnc(N)c1Cl)c1ncc(C(=O)Nc2cc(C(F)(F)F)c(Cl)cn2)s1 [Tovorafenib] |  | 225 ± 67.3 nM | −1.4 |  |  |  |
| CCCS(=O)(=O)Nc1ccc(F)c(C(=O)c2c[nH]c3ncc(-c4ccc(Cl)cc4)cc23)c1F [Vemurafenib] | −0.8 | 47.6 ± 9.12 nM | −0.9 | −0.6 | −0.7 |  |
